Assay results reported in ChEMBL document CHEMBL3044740, “Syntheses and evaluation of 2,5-disubstituted 4-thiazolidinone analogues as antimicrobial agents” (2012).
Calls of active or inactive are those of the source. The calls are words filed in the database; no cut-off is given here.

Key:
Type in all cases: functional
Escherichia coli [1] = assay: Antibacterial activity against Escherichia coli MTCC 739 at 100 ug/ml by cup-plate method; settings: read-out: DIZ
Staphylococcus aureus [2] = assay: Antibacterial activity against Staphylococcus aureus MTCC 96 at 50 ug/ml by cup-plate method; settings: read-out: DIZ
Candida albicans [3] = assay: Antifungal activity against Candida albicans MTCC 227 at 100 ug/ml by cup-plate method; settings: for zone of inhibition at 100 µg/mL: read-out: DIZ
Staphylococcus aureus [4] = assay: Antibacterial activity against Staphylococcus aureus MTCC 96 at 100 ug/ml by cup-plate method; settings: read-out: DIZ
Candida albicans [5] = assay: Antifungal activity against Candida albicans MTCC 227 at 50 ug/ml by cup-plate method; settings: for zone of inhibition at 50 µg/mL: read-out: DIZ
Staphylococcus aureus [6] = assay: Antibacterial activity against Staphylococcus aureus MTCC 96 at 200 ug/ml by cup-plate method; settings: read-out: DIZ
Escherichia coli [7] = assay: Antibacterial activity against Escherichia coli MTCC 739 at 200 ug/ml by cup-plate method; settings: read-out: DIZ
Bacillus subtilis [8] = assay: Antibacterial activity against Bacillus subtilis MTCC 121 at 200 ug/ml by cup plate method; settings: read-out: DIZ
Bacillus subtilis [9] = assay: Antibacterial activity against Bacillus subtilis MTCC 121 at 100 ug/ml by cup plate method; settings: read-out: DIZ
Pseudomonas aeruginosa [10] = assay: Antibacterial activity against Pseudomonas aeruginosa MTCC 2453 at 200 ug/ml by cup-plate method; settings: read-out: DIZ
Pseudomonas aeruginosa [11] = assay: Antibacterial activity against Pseudomonas aeruginosa MTCC 2453 at 300 ug/ml by cup-plate method; settings: read-out: DIZ
Bacillus subtilis [12] = assay: Antibacterial activity against Bacillus subtilis MTCC 121 at 300 ug/ml by cup plate method; settings: read-out: DIZ
Candida albicans [13] = assay: Antifungal activity against Candida albicans MTCC 227 at 200 ug/ml by cup-plate method; settings: for zone of inhibition at 200 µg/mL: read-out: DIZ
Escherichia coli [14] = assay: Antibacterial activity against Escherichia coli MTCC 739 at 50 ug/ml by cup-plate method; settings: read-out: DIZ
Escherichia coli [15] = assay: Antibacterial activity against Escherichia coli MTCC 739 at 300 ug/ml by cup-plate method; settings: read-out: DIZ
Candida albicans [16] = assay: Antifungal activity against Candida albicans MTCC 227 at 300 ug/ml by cup-plate method; settings: for zone of inhibition at 300 µg/mL: read-out: DIZ
Bacillus subtilis [17] = assay: Antibacterial activity against Bacillus subtilis MTCC 121 at 50 ug/ml by cup plate method; settings: read-out: DIZ
Pseudomonas aeruginosa [18] = assay: Antibacterial activity against Pseudomonas aeruginosa MTCC 2453 at 50 ug/ml by cup-plate method; settings: read-out: DIZ
Staphylococcus aureus [19] = assay: Antibacterial activity against Staphylococcus aureus MTCC 96 at 300 ug/ml by cup-plate method; settings: read-out: DIZ
Pseudomonas aeruginosa [20] = assay: Antibacterial activity against Pseudomonas aeruginosa MTCC 2453 at 100 ug/ml by cup-plate method; settings: read-out: DIZ

SMILES: O=C1N/C(=N\c2ccccc2[N+](=O)[O-])S/C1=C\c1ccccc1[N+](=O)[O-]
- zone of inhibition at 100 µg/mL (Escherichia coli [1]): 8 mm
- zone of inhibition at 50 µg/mL (Staphylococcus aureus [2]): 10 mm
- zone of inhibition at 100 µg/mL (Candida albicans [3]): 16 mm
- zone of inhibition at 100 µg/mL (Staphylococcus aureus [4]): 10 mm
- zone of inhibition at 50 µg/mL (Candida albicans [5]): 10 mm
- zone of inhibition at 200 µg/mL (Staphylococcus aureus [6]): 13 mm
- zone of inhibition at 200 µg/mL (Escherichia coli [7]): 10 mm
- zone of inhibition at 200 µg/mL (Bacillus subtilis [8]): 10 mm
- zone of inhibition at 100 µg/mL (Bacillus subtilis [9]): 9 mm
- zone of inhibition at 200 µg/mL (Pseudomonas aeruginosa [10]): 13 mm
- zone of inhibition at 300 µg/mL (Pseudomonas aeruginosa [11]): 13 mm
- zone of inhibition at 300 µg/mL (Bacillus subtilis [12]): 10 mm
- zone of inhibition at 200 µg/mL (Candida albicans [13]): 23 mm
- zone of inhibition at 50 µg/mL (Escherichia coli [14]): 8 mm
- zone of inhibition at 300 µg/mL (Escherichia coli [15]): 11 mm
- zone of inhibition at 300 µg/mL (Candida albicans [16]): 26 mm
- zone of inhibition at 50 µg/mL (Bacillus subtilis [17]): 9 mm
- zone of inhibition at 50 µg/mL (Pseudomonas aeruginosa [18]): 10 mm
- zone of inhibition at 300 µg/mL (Staphylococcus aureus [19]): 14 mm
- zone of inhibition at 100 µg/mL (Pseudomonas aeruginosa [20]): 10 mm

SMILES: O=C1N/C(=N\c2ccccc2[N+](=O)[O-])S/C1=C\c1ccccc1
- zone of inhibition at 100 µg/mL (Escherichia coli [1]): 8 mm
- zone of inhibition at 50 µg/mL (Staphylococcus aureus [2]): 10 mm
- zone of inhibition at 100 µg/mL (Candida albicans [3]): 11 mm
- zone of inhibition at 100 µg/mL (Staphylococcus aureus [4]): 11 mm
- zone of inhibition at 50 µg/mL (Candida albicans [5]): 10 mm
- zone of inhibition at 200 µg/mL (Staphylococcus aureus [6]): 12 mm
- zone of inhibition at 200 µg/mL (Escherichia coli [7]): 10 mm
- zone of inhibition at 200 µg/mL (Bacillus subtilis [8]): 11 mm
- zone of inhibition at 100 µg/mL (Bacillus subtilis [9]): 10 mm
- zone of inhibition at 200 µg/mL (Pseudomonas aeruginosa [10]): 8 mm
- zone of inhibition at 300 µg/mL (Pseudomonas aeruginosa [11]): 10 mm
- zone of inhibition at 300 µg/mL (Bacillus subtilis [12]): 13 mm
- zone of inhibition at 200 µg/mL (Candida albicans [13]): 13 mm
- zone of inhibition at 50 µg/mL (Escherichia coli [14]): 7 mm
- zone of inhibition at 300 µg/mL (Escherichia coli [15]): 12 mm
- zone of inhibition at 300 µg/mL (Candida albicans [16]): 18 mm
- zone of inhibition at 50 µg/mL (Bacillus subtilis [17]): 8 mm
- zone of inhibition at 50 µg/mL (Pseudomonas aeruginosa [18]): 6 mm
- zone of inhibition at 300 µg/mL (Staphylococcus aureus [19]): 15 mm
- zone of inhibition at 100 µg/mL (Pseudomonas aeruginosa [20]): 6 mm

SMILES: O=C1N/C(=N\c2ccc([N+](=O)[O-])cc2)S/C1=C\c1ccc(Cl)cc1
- zone of inhibition at 100 µg/mL (Escherichia coli [1]): 16 mm
- zone of inhibition at 50 µg/mL (Staphylococcus aureus [2]): 13 mm
- diameter of the inhibition zone (DIZ) (Candida albicans [3]): inactive
- zone of inhibition at 100 µg/mL (Staphylococcus aureus [4]): 14 mm
- diameter of the inhibition zone (DIZ) (Candida albicans [5]): inactive
- zone of inhibition at 200 µg/mL (Staphylococcus aureus [6]): 15 mm
- zone of inhibition at 200 µg/mL (Escherichia coli [7]): 16 mm
- zone of inhibition at 200 µg/mL (Bacillus subtilis [8]): 17 mm
- zone of inhibition at 100 µg/mL (Bacillus subtilis [9]): 16 mm
- zone of inhibition at 200 µg/mL (Pseudomonas aeruginosa [10]): 13 mm
- zone of inhibition at 300 µg/mL (Pseudomonas aeruginosa [11]): 14 mm
- zone of inhibition at 300 µg/mL (Bacillus subtilis [12]): 18 mm
- diameter of the inhibition zone (DIZ) (Candida albicans [13]): inactive
- zone of inhibition at 50 µg/mL (Escherichia coli [14]): 15 mm
- zone of inhibition at 300 µg/mL (Escherichia coli [15]): 18 mm
- diameter of the inhibition zone (DIZ) (Candida albicans [16]): inactive
- zone of inhibition at 50 µg/mL (Bacillus subtilis [17]): 15 mm
- zone of inhibition at 50 µg/mL (Pseudomonas aeruginosa [18]): 11 mm
- zone of inhibition at 300 µg/mL (Staphylococcus aureus [19]): 17 mm
- zone of inhibition at 100 µg/mL (Pseudomonas aeruginosa [20]): 12 mm

SMILES: O=C1N/C(=N\c2ccc([N+](=O)[O-])cc2)S/C1=C\c1cccc([N+](=O)[O-])c1
- zone of inhibition at 100 µg/mL (Escherichia coli [1]): 11 mm
- zone of inhibition at 50 µg/mL (Staphylococcus aureus [2]): 11 mm
- diameter of the inhibition zone (DIZ) (Candida albicans [3]): inactive
- zone of inhibition at 100 µg/mL (Staphylococcus aureus [4]): 15 mm
- diameter of the inhibition zone (DIZ) (Candida albicans [5]): inactive
- zone of inhibition at 200 µg/mL (Staphylococcus aureus [6]): 16 mm
- zone of inhibition at 200 µg/mL (Escherichia coli [7]): 12 mm
- zone of inhibition at 200 µg/mL (Bacillus subtilis [8]): 13 mm
- zone of inhibition at 100 µg/mL (Bacillus subtilis [9]): 12 mm
- zone of inhibition at 200 µg/mL (Pseudomonas aeruginosa [10]): 12 mm
- zone of inhibition at 300 µg/mL (Pseudomonas aeruginosa [11]): 12 mm
- zone of inhibition at 300 µg/mL (Bacillus subtilis [12]): 15 mm
- diameter of the inhibition zone (DIZ) (Candida albicans [13]): inactive
- zone of inhibition at 50 µg/mL (Escherichia coli [14]): 11 mm
- zone of inhibition at 300 µg/mL (Escherichia coli [15]): 12 mm
- diameter of the inhibition zone (DIZ) (Candida albicans [16]): inactive
- zone of inhibition at 50 µg/mL (Bacillus subtilis [17]): 11 mm
- zone of inhibition at 50 µg/mL (Pseudomonas aeruginosa [18]): 10 mm
- zone of inhibition at 300 µg/mL (Staphylococcus aureus [19]): 17 mm
- zone of inhibition at 100 µg/mL (Pseudomonas aeruginosa [20]): 11 mm
